The results in this text go back to patent US8901317B2, “Tryptamine derivatives, their preparation and their use in gastropathy” (Council of Scientific & Industrial Research, priority 2010, dated 2014).

Experiment [1] in a line: Ferric reducing antioxidant power (FRAP) assay. As for the experimental part: The antioxidant property of different tryptamine derivatives were assessed and compared with the known antioxidants for potency. […] The FRAP assay is based on the measurement of the ability of the substance to reduce Fe^3+ to Fe^2+, greater the reducing ability greater the anti oxidant property. Antioxidants reduce Fe^3+-TPTZ in to blue colored Fe^2+-TPTZ complex, which results in an increase in the absorbance at 595 nm giving a FRAP value. […] Absorbance changes at different time intervals (FIG. 6) as well as at different concentrations (FIG. 7) at time 6 min in the presence of different compounds at 595 nm were measured. FRAP values at 6 min and 65 min were calculated from different tryptamine derivatives and some known antioxidant (Table 1). […] DPPH assay based on the DPPH free radicals scavenging power of the antioxidant molecules. Higher the scavenging power higher will be the antioxidant property.
The assay was performed in a 96-well microplate. FRAP reagent was prepared by mixing of 10 ml acetate buffer (200 mM, pH-3.6), 1 ml of 2,4,6-tris(2-pyridyl)-s-triazine (TPTZ) solution (10 mM in 40 mM HCl) and 1 ml of ferric chloride solution (20 mM) in distilled water. For 1 h the mixture was kept in a water bath at 37° C. In 96-well microplates, 25 μL of the compounds under investigation dissolved (in methanol, some compound dissolved in water) at different concentrations in the range 1-25 μM was placed in triplicate and freshly prepared FRAP solution (175 μL) was added to this sample. A micro plate reader monitored the absorbance at 595 nm at different time intervals for up to 150 min. The absorbance of a mixture 175 μL TRAP sol and 25 μL methanol or water was taken which was subtracted from the absorbance of the samples at each time interval to calculate the absorbance change (ΔA). The FRAP value at time interval t (FRAP valuet) was calculated according to the formula: FRAP valuet(M)=(ΔatFl/ΔatFe^2+)×10^−5 Where ΔatFl is the absorbance change after the time interval t (6 and 65 min) relative to the tested flavonoid at the concentration of 10 μM and ΔatFe^2+ is the absorbance change at the same time interval relative to ferrous sulfate at the same concentration (Pal, C; et al. Free Radic Biol Med, 49(2), 258-267, 2010, Firuzi, O; et al. Biochim. Biophys. Acta 1721:174-184; 2005).

Experiment [2] deals with NSAIDs-induced mitochondrial oxidative stress. The experiment can be described thus: Mitochondrial oxidative stress in gastric mucosa (protein carbonyl, lipid peroxidation, total thiol). Format: in vivo, rats. To be noted: NSAIDs (indomethcin, diclofenac)-induced; pretreatment. As for the experimental part:
Commercially available kit (Biochain) was used for the isolation of mitochondria from gastric mucosal cells. In brief, scrapped gastric mucosa was finely minced on ice in a petridish containing mitochondria extraction buffer. Ultra-Turrax T-25 homogenizer was used to homogenize the cells. To remove nuclei and unbroken cells the homogenate was first centrifuged at 800×g for 10 min and then finally subjected to 12000×g for 15 min to get the mitochondrial fraction.
Mitochondrial oxidative stress was performed earlier through measurement protein carbonyl formation, lipid peroxidation and measurement of total thiol content (Pal, C; et al. Free Radic Biol Med, 49(2), 258-267; 2010, Maity, P.; et al. J. Biol. Chem. 284:3058-3068; 2009, Maity, P.; et al. J. Biol. Chem. 283:14391-14401; 2008, Maity, P.; et al. J. Pineal Res. 46:314-323; 2009).
Mitochondrial oxidative stress was studied earlier through the measurement of mitochondrial total thiol depletion, lipid peroxidation and protein carbonyl formation. In brief, thiol content was measured by its reaction with 5-5′-dithionitrobenzoic acid (DTNB) to yield the yellow chromophore of TNB (thionitrobenzoic acid), which was measured at 412 nm Mitochondrial lipid peroxidation was assayed by adding 1 ml of the mitochondrial fraction in 0.9% normal saline to 2 ml of TBA-TCA mixture (0.375% w/v and 15% w/v, respectively) in 0.25 N HCl and was mixed and boiled for 15 min which was then cooled and after centrifugation, the absorbance of the supernatant was read at 535 nm. Tetraethoxypropane was used as standard. Protein carbonyl was measured by following the standard colorimetric method that measures the binding of dinitrophenylhydrazine (DNP) to the carbonyl group and was quantified by taking the absorbance at 362 nm.

For experiment [3], the system named is primary cultured gastric epithelial cells. Description: TUNEL assay in cultured gastric mucosal cells. Format: cell-based, rat. To be noted: in vitro cultured gastric mucosa. As to the method: Gastric mucosal cells were isolated and cultured as described earlier (Pal, C; et al. Free Radic Biol Med, 49(2), 258-267; 2010) with slight modification. Mucosa from rat stomach was scraped into HBSS (pH 7.4) containing 100 U/ml penicillin and 100-μg/ml streptomycin. The mucosa was then minced and suspended in HBSS (pH 7.4), containing 0.05% hyaluronidase and 0.1% collagenase type I. The suspension was incubated for 30 min at 37° C. in 5% CO2 environment with shaking and then filtered through a sterile nylon mess. The filtrate was centrifuged at 600×g for 5 min, the cell pellet was washed with HBSS (pH 7.4) and further centrifuged. The pellet was incubated in 5 ml of Hans F-12 media in T25 flask supplemented with 10% fetal bovine serum (FBS) and 100 U/ml penicillin, 100-μg/ml streptomycin and gentamycin. Cells were cultured at 37° C. with 5% CO2 and grown to ˜90% confluence before treatment.

In experiment [4] the test system is Mitochondrial transmembrane potential (ΔΨm). Description: Mitochondrial transmembrane potential (JC-1). Format: in vivo, rats. To be noted: indomethacin, diclofenac; pretreatment. As for the experimental part:
Mitochondrial transmembrane potential (ΔΨm) was measured as described (Maity, P.; et al. J. Biol. Chem. 284:3058-3068; 2009, Maity, P.; et al. J. Biol. Chem. 283:14391-14401; 2008, Maity, P.; et al. J. Pineal Res. 46:314-323; 2009). Mitochondria were isolated from gastric mucosal scraping using Mitoisolation kit (Biochain) as described above. Equal amount of mitochondria (25 μg) from each group (control, indomethacin, diclofenac and SEGA pre-treated indomethacin, diclofenac treated) was taken in 100 μl of JC-1 assay buffer (100 mM MOPS, pH 7.5, containing 550 mM KCl, 50 mM ATP, 50 mM MgCl2, 50 mM sodium succinate, 5 mM EGTA) and were incubated in dark with JC1 (300 nM) for 15 min at 25° C. The fluorescence of each sample was measured in a Hitachi F-7000 fluorescence spectrophtometer (excitation 490 nm, emission 530 nm for JC-1 monomer and emission 590 nm for JC-1 aggregates). ΔΨm was expressed as fluorescence ratio of 590 nm/530 nm.

As for `O=C(NCCc1c[nH]c2ccc(O)cc12)c1cc(O)c(O)c(O)c1` [Compound 3a, 3,4,5-trihydroxy-N-(2-(5-hydroxy-1H-indol-3-yl)ethyl)benzamide], the “FRAP Value6 min (μM) M ± SD” value in experiment [1] (6 min, compound at 10 μM relative to ferrous sulfate) is 39.51 ± 2.7 µM. Also, in experiment [1] (65 min, compound at 10 μM relative to ferrous sulfate), the “FRAP Value65 min (μM) M ± SD” value is 60.61 ± 7.3 µM. The “reducing ability (Fe^3+ to Fe^2+) / antioxidant property in words” value in experiment [1] (compared to other tryptamine derivatives and known antioxidants) is “greater reducing ability”. Moreover, in experiment [2], the “depletion of mitochondrial thiol” value was “protects”, the “oxidation of mitochondrial protein (protein carbonyl formation)” value is “protects” and the “peroxidation of mitochondrial lipid” value is recorded as “protects”. For the same compound, the “indomethacin-induced apoptosis (TUNEL) in vitro” value in experiment [3] is given as “prevents the indomethcin-induced apoptosis”. In experiment [4], the “mitochondrial membrane potential (fluorescence ratio 590 nm/530 nm, JC-1)” value is “restores all the NSAIDs-induced mitochondrial dysfuctions”.
